From patent US5346913A, “N-iodopropargyl hydantoin compounds, compositions, preparation, and use as antimicrobial agents” (Rohm and Haas Company, priority 1992, dated 1994)
In brackets after ≈: the same amount, converted by molar mass. Like-named read-outs stand apart in the source and are kept apart here.

Tests used:
Pseudomonas aerugenosa = experiment: MIC, broth two-fold serial dilution test, Pseudomonas aerugenosa (Psae); type: cell-based
From the text: (§1) The compounds identified with a prime (') were the non-iodo analogues of the invention compounds, i.e., the compounds of formula III or IV. All data are reported in ppm of active ingredient required to control the respective organism. The indication "No In." means that the compound had no inhibitory activity at 500 ppm which was the maximum tested, and so if the "No In." compound were active, the minimum inhibitory concentration would be above 500 ppm. The comparative tests were not run side-by-side, but were run on different days using the same methods. […] A minimum inhibitory concentration (MIC) value is obtained using a broth, two-fold serial dilution test performed as follows: […] A volume of the stock solution is dispensed into culture media to give an initial starting test concentration of the compound of 500 ppm or 250 ppm. When the test is ready to be done, each vessel in the dilution series, except the first vessel, contains an equal volume of compound free broth. The first vessel contains twice the volume of broth with the starting concentration of test compound. One half of the broth from the first vessel is transferred to the second vessel. After being mixed, one half the resulting volume is removed from the second vessel and transferred to the third vessel. […] Each vessel is then inoculated with a cell suspension of the appropriate test organism. Bacteria are grown in broth and fungi on agar […] is grown in cooling tower media for a time and at a temperature appropriate to the species being tested. At the end of the growth period, the broth is vortexed to disperse the cells. In the case of fungi, the spores are harvested by pipetting water onto the slant and dislodging the spores with a sterile loop. The cell/spore suspension is standardized by controlling incubation time, temperature, and the volume of the diluent. The suspension is then used to inoculate the vessels containing the broth compound. The vessels are then incubated at the appropriate temperature. After the incubation, the vessels are examined for growth/no growth. The MIC is defined as the lowest concentration of compound that results in complete inhibition of growth of the test organism. BACTERIA: Pseudomonas fluorescens (Ps.fl), gram negative; Pseudomonas aerugenosa (Ps.ae), gram negative; Escherichia coli (E.c), gram negative; and Staphylococcus aureus (S.a), gram positive.

Staphylococcus aureus = experiment: MIC, broth two-fold serial dilution test, Staphylococcus aureus (Saur); type: cell-based
From the text: as §1

Escherichia coli = experiment: MIC, broth two-fold serial dilution test, Escherichia coli (Ecol); type: cell-based
From the text: as §1

Aspergillus niger = experiment: MIC, broth two-fold serial dilution test, Aspergillus niger (Anig); type: cell-based; settings: TSB
From the text: as §1, with “INDUSTRIAL FUNGI: Aspergillus niger (A.n); Aureobasidium pullulans (A.p)” for “BACTERIA: Pseudomonas fluorescens (Ps.fl), gram negative; Pseudomonas aerugenosa (Ps.ae), gram negative; Escherichia coli (E.c), gram negative; and Staphylococcus aureus (S.a), gram positive.”

[1] = tested on: Pseudoperonospora cubensis; experiment: whole plant or invertebrate; type: in vivo; settings: for pest or weed control at 200 ppm: Pseudoperonospora cubensis, in Cucumis sativus, 168 h, read-out: % Control CDM
[2] = tested on: Pellicularia filamentosa (f. sp. sasiki); experiment: whole plant or invertebrate; type: in vivo; settings: 120 h; read-out: % Control RSB
Piricularia oryzae = experiment: whole plant or invertebrate; type: in vivo; settings: Pyricularia oryzae, read-out: % Control RB
Phytophthora infestans = experiment: whole plant or invertebrate; type: in vivo; settings: for pest or weed control at 200 ppm / pest or weed control at 50 ppm: Phytophthora infestans, in Solanum lycopersicum, 96 h; for pest or weed control at 50 ppm: read-out: % Control TLB, secondary greenhouse test (Table 5), 50 ppm
[3] = tested on: Puccinia recondita (f. sp. tritici Races PKB and PLD); experiment: whole plant or invertebrate; type: in vivo; settings: for pest or weed control at 50 ppm / pest or weed control at 200 ppm: Puccinia recondita, 240 h, read-out: % Control WLR
[4] = tested on: Erysiphe graminis (f. sp. tritici); experiment: whole plant or invertebrate; type: in vivo; settings: for pest or weed control at 50 ppm / pest or weed control at 200 ppm: Blumeria graminis, read-out: % Control WPM
TLB, CDM, WLR, SNW, WPM = settings: in vivo
Septoria nodorum = settings: in vivo
[5] = read-out: % Control TLB, greenhouse test (Table 4), 200 ppm
[6] = read-out: % Control TLB, secondary greenhouse test (Table 5), 200 ppm

Row | Compound | MIC (Pseudomonas aerugenosa; M9G) | MIC (Pseudomonas aerugenosa; TSB) | MIC (Staphylococcus aureus; M9G) | MIC (Staphylococcus aureus; TSB) | MIC (Escherichia coli; M9G) | MIC (Escherichia coli; TSB) | MIC (Aspergillus niger) | also measured
1 | C#CCN1C(=O)N(c2cc(Cl)cc(Cl)c2)C(=O)C1C (centres unmarked) [Compound 1', 1-(2-propynyl)-3-(3,5-dichlorophenyl)-5-methylhydantoin, reference compound] | > 500 µg/mL | > 500 µg/mL | > 500 µg/mL | > 500 µg/mL | > 500 µg/mL | > 500 µg/mL | > 500 µg/mL | –
2 | CC1C(=O)N(c2cc(Cl)cc(Cl)c2)C(=O)N1CC#CI (centres unmarked) [Compound 1] | > 500 µg/mL | > 500 µg/mL | > 500 µg/mL | > 500 µg/mL | > 500 µg/mL | > 500 µg/mL | 0.5 µg/mL (≈ 1.18 µM) | pest or weed control at 200 ppm [1]: 90%; pest or weed control at 50 ppm [2]: 50%; pest or weed control at 200 ppm [2]: 75%; pest or weed control at 50 ppm (Piricularia oryzae): 50%; pest or weed control at 200 ppm (Piricularia oryzae): 50%; pest or weed control at 200 ppm (Phytophthora infestans; [5]): 0%; pest or weed control at 50 ppm (Phytophthora infestans): 75%; pest or weed control at 200 ppm (Phytophthora infestans; [6]): 95%; pest or weed control at 50 ppm [3]: 50%; pest or weed control at 200 ppm [3]: 80%; pest or weed control at 50 ppm [4]: 0%
3 | CC1(C)C(=O)N(c2cc(Cl)cc(Cl)c2)C(=O)N1CC#CI [Compound 6, 1-(3-iodo-2-propynyl)-3-(3,5-dichlorophenyl)-5,5-dimethylhydantoin] | > 500 µg/mL | > 500 µg/mL | 8 µg/mL (≈ 18.3 µM) | 2 µg/mL (≈ 4.58 µM) | > 500 µg/mL | > 500 µg/mL | 1 µg/mL (≈ 2.29 µM) | percent disease control CDM ([1]; in vivo): 100.0%; percent disease control Average (TLB, CDM, WLR, SNW, WPM): 77.6%; percent disease control TLB (Phytophthora infestans; advanced greenhouse test (Table 6), 0.25 kg a.i./ha): 70.0%; percent disease control SNW (Septoria nodorum): 68.0%; percent disease control WLR ([3]; in vivo): 82.0%; percent disease control WPM ([4]; in vivo): 68.0%
4 | O=C1CN(CC#CI)C(=O)N1c1cc(Cl)cc(Cl)c1 [Compound 7, 1-(3-iodo-2-propynyl)-3-(3,5-dichlorophenyl)hydantoin] | > 500 µg/mL | > 500 µg/mL | 16 µg/mL (≈ 39.1 µM) | 8 µg/mL (≈ 19.6 µM) | > 500 µg/mL | > 500 µg/mL | 1 µg/mL (≈ 2.44 µM) | pest or weed control at 200 ppm [1]: 50%; pest or weed control at 200 ppm [2]: 50%; pest or weed control at 50 ppm (Piricularia oryzae): 50%; pest or weed control at 200 ppm (Piricularia oryzae): 50%; pest or weed control at 200 ppm (Phytophthora infestans; [5]): 90%; pest or weed control at 50 ppm (Phytophthora infestans): 50%; pest or weed control at 200 ppm (Phytophthora infestans; [6]): 90%; pest or weed control at 50 ppm [3]: 50%; pest or weed control at 50 ppm [4]: 0%
5 | C#CCN1C(=O)N(Cc2ccccc2)C(=O)C1(C)C [Compound 8, 3-benzyl-1-propargyl-5,5-dimethylhydantoin, reference compound] | > 500 µg/mL | > 500 µg/mL | > 500 µg/mL | > 500 µg/mL | > 500 µg/mL | > 500 µg/mL | > 500 µg/mL | –
6 | CC1(C)C(=O)N(Cc2ccccc2)C(=O)N1CC#CI [Compound 8] | 32 µg/mL (≈ 83.7 µM) | 125 µg/mL (≈ 327 µM) | 16 µg/mL (≈ 41.9 µM) | 16 µg/mL (≈ 41.9 µM) | 64 µg/mL (≈ 167 µM) | 125 µg/mL (≈ 327 µM) | < 0.25 µg/mL | pest or weed control at 50 ppm [2]: 50%; pest or weed control at 200 ppm [2]: 75%; pest or weed control at 50 ppm (Piricularia oryzae): 50%; pest or weed control at 200 ppm (Piricularia oryzae): 50%; pest or weed control at 50 ppm (Phytophthora infestans): 50%; pest or weed control at 200 ppm (Phytophthora infestans; [6]): 50%; pest or weed control at 50 ppm [3]: 80%; pest or weed control at 200 ppm [3]: 90%; pest or weed control at 50 ppm [4]: 0%; pest or weed control at 200 ppm [4]: 50%
7 | CCCCN1C(=O)N(CC#CI)C(C)(C)C1=O [Compound 9, 1-(3-iodo-2-propynyl)-3-n-butyl-5,5-dimethylhydantoin] | 64 µg/mL (≈ 184 µM) | 500 µg/mL (≈ 1440 µM) | 4 µg/mL (≈ 11.5 µM) | 16 µg/mL (≈ 46 µM) | 16 µg/mL (≈ 46 µM) | 500 µg/mL (≈ 1440 µM) | 2 µg/mL (≈ 5.74 µM) | –
8 | CCCCCCCCN1C(=O)N(CC#CI)C(C)(C)C1=O [Compound 10, 1-(3-iodo-2-propynyl)-3-n-octyl-5,5-dimethylhydantoin] | 125 µg/mL (≈ 309 µM) | > 500 µg/mL | 2 µg/mL (≈ 4.95 µM) | 4 µg/mL (≈ 9.89 µM) | 250 µg/mL (≈ 618 µM) | > 500 µg/mL | 4 µg/mL (≈ 9.89 µM) | –
9 | C#CCN1C(=O)N(CC#C)C(C)(C)C1=O [Compound 11, 1,3-bis-(2-propynyl)-5,5-dimethylhydantoin, reference compound] | > 500 µg/mL | > 500 µg/mL | > 500 µg/mL | > 500 µg/mL | > 500 µg/mL | > 500 µg/mL | > 500 µg/mL | –
10 | C#CCN1C(=O)NC(C)(C)C1=O [Compound 12, 3-(2-propynyl)-5,5-dimethylhydantoin, reference compound] | > 500 µg/mL | > 500 µg/mL | > 500 µg/mL | > 500 µg/mL | > 500 µg/mL | > 500 µg/mL | > 500 µg/mL | –
11 | CC(C)(C#CI)N1CC(=O)N(c2cc(Cl)cc(Cl)c2)C1=O [Compound 13, 1-(1,1-dimethyl-3-iodo-2-propynyl)-3-(3,5-dichlorophenyl)hydantoin] | > 500 µg/mL | > 500 µg/mL | > 500 µg/mL | > 500 µg/mL | > 500 µg/mL | > 500 µg/mL | 8 µg/mL (≈ 18.3 µM) | pest or weed control at 200 ppm [1]: 80%; pest or weed control at 50 ppm [2]: 50%; pest or weed control at 200 ppm [2]: 75%; pest or weed control at 50 ppm (Piricularia oryzae): 50%; pest or weed control at 200 ppm (Piricularia oryzae): 50%; pest or weed control at 200 ppm (Phytophthora infestans; [5]): 70%; pest or weed control at 50 ppm (Phytophthora infestans): 0%; pest or weed control at 200 ppm (Phytophthora infestans; [6]): 50%; pest or weed control at 50 ppm [3]: 50%; pest or weed control at 200 ppm [3]: 90%; pest or weed control at 50 ppm [4]: 50%; pest or weed control at 200 ppm [4]: 75%
12 | C#CCN1C(=O)N(Cc2ccccc2)C(C)(C)C1=O [Compound 14, 1-benzyl-3-(propyn-2-yl)-5,5-dimethylhydantoin, reference compound] | > 500 µg/mL | > 500 µg/mL | > 500 µg/mL | > 500 µg/mL | > 500 µg/mL | > 500 µg/mL | > 500 µg/mL | –
13 | CC1(C)C(=O)N(CC#CI)C(=O)N1Cc1ccccc1 [Compound 14] | > 500 µg/mL | > 500 µg/mL | > 500 µg/mL | 64 µg/mL (≈ 167 µM) | 125 µg/mL (≈ 327 µM) | 250 µg/mL (≈ 654 µM) | 4 µg/mL (≈ 10.5 µM) | –
14 | O=C1CNC(=O)N1CC#CI [Compound 15, 3-(3-iodo-2-propynyl)-hydantoin] | 250 µg/mL (≈ 947 µM) | 500 µg/mL (≈ 1890 µM) | 64 µg/mL (≈ 242 µM) | 125 µg/mL (≈ 473 µM) | 64 µg/mL (≈ 242 µM) | 64 µg/mL (≈ 242 µM) | 8 µg/mL (≈ 30.3 µM) | –
